Consider one molecule from US10251944B2, “Cancer vaccines” (Pfizer Inc., priority 2016, dated 2019).

Where “and” joins values, the source holds several entries; their conditions need not be identical. Equal entries are not always repeated.

The subject of this assay is TUBO tumor cells. As to the kind of experiment: Subcutaneous TUBO tumor growth in BALB-neuT mice. It counts as in vivo. The note with it: for Subcutaneous tumor volumes: BALB-neuT mice, individual animals, with control vaccine and isotype control monoclonal antibody, listed as IDO1 inhibitor, in mm³. More on the design: key to Subcutaneous tumor volumes: tumor volume in mm3. How it is done:
BALB-neuT mice were implanted on study day 0 with TUBO tumor cells by subcutaneous injection. Mice were dosed with 200 mg/Kg of 3-(5-fluoro-1H-indol-3-yl)pyrrolidine-2,5-dione (IDO1 inhibitor) or vehicle twice daily from study day 7 using oral gavage. Comparator groups were sham dosed with vehicle from study day 7 onwards. Appropriated mice were immunized on study day 10 with 1e10 Viral Particles of an adenovirus vector engineered to express rat HER2 (rHER2) (rHER2 vaccine) or vector lacking the rHER2 transgene (control vaccine), by intramuscular injection. Subsequently, 250 ug of an anti-CTLA4 antibody (murine monoclonal antibody to CTLA-4, clone 9D9) or an IgG2 isotype control monoclonal antibody was injected subcutaneously in close proximity to lymph nodes draining the site of adenovirus vector injection. Every two weeks thereafter, mice were immunized with 100 ug of a DNA plasmid encoding rHER2 (rHER2 vaccine) or a DNA plasmid lacking the rHER2 transgene (control vaccine) by electroporation. Subsequent to the DNA plasmid administration, 250 ug of the anti-CTLA4 antibody was injected subcutaneously in close proximity to lymph nodes draining the site of DNA plasmid injection. To track tumor progression, subcutaneous tumor volumes were measured twice a week throughout the study. Animals with subcutaneous tumor volumes that reached 2000 mm3 or displaying irreversible signs of disease were euthanized.

On to `O=C1CC(c2c[nH]c3ccc(F)cc23)C(=O)N1` (stereo not drawn) [001 inhibitor, 3-(5-fluoro-1H-indol-3-yl)pyrrolidine-2,5-dione], for which, under “BALB-neuT mice with TUBO tumors, IDO1 inhibitor 200 mg/Kg twice daily oral, anti-CTLA4 250 ug s.c., rHER2 adenovirus then DNA”, the “tumor growth rates (subcutaneous tumor volumes), in words” value was “No effect on tumor growth rates”. Further, the Subcutaneous tumor volumes (Study Day 18) is 87.17 and 43.33 and 77.07 and 67.44 and 136.82 and 73.84 and 62.25 and 84.25 and 115.90 and 47.77 and 40.28 and 81.38 and 130.43; the Subcutaneous tumor volumes (Study Day 21) was 91.03 and 64.93 and 113.76 and 113.10 and 163.91 and 75.81 and 78.22 and 89.04 and 182.85 and 58.23 and 54.88 and 135.90 and 127.97; the Subcutaneous tumor volumes (Study Day 24) is 161.46 and 92.35 and 169.45 and 127.09 and 198.49 and 100.08 and 101.79 and 140.26 and 284.27 and 88.35 and 55.22 and 110.30 and 155.81; the Subcutaneous tumor volumes (Study Day 27) is 163.11 and 110.42 and 171.37 and 129.44 and 240.05 and 125.82 and 123.19 and 186.49 and 361.01 and 112.48 and 80.13 and 147.33 and 241.15; the Subcutaneous tumor volumes (Study Day 32) is 252.04 and 173.28 and 301.94 and 202.21 and 337.79 and 251.57 and 194.14 and 275.98 and 541.91 and 153.38 and 110.90 and 184.76 and 321.37; the Subcutaneous tumor volumes (Study Day 35) is 324.53 and 260.28 and 306.58 and 377.96 and 401.70 and 262.56 and 246.60 and 364.82 and 598.92 and 209.97 and 141.15 and 244.33 and 521.30. Besides, the Subcutaneous tumor volumes is 414.72 and 343.13 and 512.15 and 430.30 and 596.09 and 434.13 and 389.39 and 471.60 and 671.98 and 338.06 and 192.15 and 328.32 and 572.30 (Study Day 39); 603.00 and 408.33 and 574.86 and 574.25 and 680.54 and 551.64 and 463.99 and 601.50 and 820.44 (Study Day 42).
